Measured values as given in patent publication US9238034B2, “FN14 antagonists and therapeutic uses thereof” (THE TRANSLATIONAL GENOMICS RESEARCH INSTITUTE, priority 2013, dated 2016).
Residue numbers refer to the chain shown, from its start. Names and notes keep the numbering of the source.

T1: Fn14 (Homo sapiens, UniProt Q9NP84)
T1 construct: the human Fc fragment-tagged Fn14 extracellular domain (R&D Systems) was captured
T1 sequence (Q9NP84 28-80 limits assumed): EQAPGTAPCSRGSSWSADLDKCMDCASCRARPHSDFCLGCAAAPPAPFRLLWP

T2: TWEAK (Homo sapiens, UniProt O43508)
T2 sequence (O43508 94-249 limits assumed): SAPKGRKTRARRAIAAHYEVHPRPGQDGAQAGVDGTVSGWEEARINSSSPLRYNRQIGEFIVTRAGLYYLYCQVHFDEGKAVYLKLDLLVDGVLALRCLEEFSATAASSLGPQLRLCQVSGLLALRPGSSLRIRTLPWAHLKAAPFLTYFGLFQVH

B1: sTWEAK Y176A: soluble form of TWEAK (amino acids K97-H249) with Y176A substitution, made by IVTT (protein, UniProt O43508 97-249, looked up, variant Y176A)
chain: KGRKTRARRAIAAHYEVHPRPGQDGAQAGVDGTVSGWEEARINSSSPLRYNRQIGEFIVTRAGLYYLYCQVHFDEGKAVALKLDLLVDGVLALRCLEEFSATAASSLGPQLRLCQVSGLLALRPGSSLRIRTLPWAHLKAAPFLTYFGLFQVH
B2: sTWEAK Y176F: soluble form of TWEAK (amino acids K97-H249) with Y176F substitution, made by IVTT (protein, UniProt O43508 97-249, looked up, variant Y176F)
chain: B1 chain with A80F

How the values were obtained:
[1] = test system: TNFα induction of NF-κB; assay: TNFα induced counterscreen assay, HEK293 NF-κB Luc cells; format: cell-based, human
Text: TNFα induction of the HEK293 NF-κB cell line was used as a counterscreen. […] Furthermore, we tested the two control compounds, LY294002 and BAY11-7082, in a drug dose-response format. […] We anticipate that compounds that directly affect Fn14 oligomerization, TWEAK ligation, or signaling proteins specific to the TWEAK-Fn14 signaling pathway that drive NF-κB activation will show minimal activity in the TNFα counterscreen assay. In order to eliminate the false positive hits from the pilot screen, we further performed the counterscreen by testing 35 “positives” from the Prestwick collection against HEK293 NF-KB-Luc control cell lines induced by TNFα. From this experiment we eliminated 28 compounds that inhibited luciferase expression after TNFα induction of HEK293 NF-KB Luc cells. Thus, after counterscreen only 7 compounds appeared to be specific inhibitors to the TWEAK-Fn14 signaling pathway. […] Overall, through our pilot primary screen and counterscreen, our hit rate approached 0.6% for this targeted collection. We expect a random collection to yield a lower hit-rate, which will be further reduced through the chemoinformatic filtering for luciferase false positive artifacts. Furthermore, secondary assays will be critical as cytotoxic false positives appeared to be about 80% from our pilot screen. […]

[2] = test system: TWEAK-Fn14 signaling pathway; assay: TWEAK induced Fn14-NF-κB Luc assay, optimized 384-well HTS format; format: cell-based, human; settings: 1000 cells/well, 40 ng/mL TWEAK 8 hr, 1 hr pre-incubation
Text: Human embryonic kidney cells (HEK293) express low levels of the Fn14 receptor. We developed a cell-based assay for the Fn14-TWEAK pathway signaling events using HEK293 cells that stably co-expresses high levels of full length Fn14 receptor and a firefly luciferase reporter driven by NF-KB-response elements (Fn14-NF-KB-Luc).
We optimized HEK293 Fn14-NF-KB Luc cell line for HTS by testing TWEAK-stimulated Luc-reporting as a function of growth medium, TWEAK concentration, induction time, assay duration, cell density, and DMSO concentration. For example, we seeded HEK293 Fn14-NF-KB-Luc and control cells (HEK293 NFKB-Luc) into a 96-well plate at a density of 10,000 cells/well, in DMEM or Opti-MEM® (Reduced serum media, protein concentration 15 μg/mL) and incubated at 37 C for 24 or 48 h. We then induced them with various concentrations of TWEAK in buffer or buffer alone (PBS+1 mg/mL BSA) for 5 hr and then measured firefly luciferase levels by chemiluminescence (Bright-Glo™ Promega). […] These initial conditions formed the basis for transfer of the assay into a 384-well format and further optimization with respect to cell seeding density, induction time, and TWEAK concentration.
We achieved the same conclusion from both 96-well and 384-well format that signal-to-background and fold-inductions are increased with increasing TWEAK concentration, peaking between 40-80 ng/mL and decreased at 100 ng/mL (FIGS. 20A and 20B). […] These conditions were further refined with respect to cell density (500-2500 cells per well), induction time (4-8 hr), and two TWEAK concentrations over a series of experiments in 384-well formats.
In the majority of seeding density conditions and two different TWEAK concentrations, the assay performance improved with increasing TWEAK induction time. At 8 hours of TWEAK stimulation, the fold induction (S/B) and Z′ factor was approximately 8-fold and 0.8, respectively, and the average % CV was 6.8%. […]

[3] = biological target: T1, Fn14; assay: Surface Plasmon Resonance assay, Fn14-Fc sensor surface; format: binding; settings: SPR, 0 to 50 μM
Procedure: (§1) Surface Plasmon Resonance (SPR) Assay. The binding affinity of at least one of the compounds (e.g., L524-0366) to TWEAK and Fn14-Fx was determined using a BIAcore T100 optical biosensor (GE Healthcare) at 25 degrees Celsius at the Arizona Proteomics Consortium. Recombinant human TWEAK (20 μg/mL in 10 mM HEPES pH 7.4, 150 mM NaCl, 3 mM EDTA, 0.05% Tween 20) or recombinant human Fn14-Fc (20 μg/mL in 10 mM NaOAc pH 4.0) were covalently coupled to separate flow cells on a BIAcore CM5 sensor chip using standard amine coupling chemistry as per manufacturer's protocol. Final immobilization levels were 6000 Response Units (RU) for TWEAK and 13,000 RU for FN14-Fc. The first flow path of the chip was treated with the same coupling and blocking reagents without protein and was used as a reference for each binding cycle. Functionality of the TWEAK and the Fn14-Fc sensor surfaces were verified by injecting Fn14-Fc and TWEAK over them respectively. Serial dilutions of L524-0366 or cycloheximide (control) from 0 to 50 μM were made in running buffer (10 mM HEPES pH 7.4, 150 mM NaCl, 3 mM EDTA, 1% DMSO). […] Equilibrium dissociation constants for the small molecules were calculated by fitting the double reference subtracted data to Req=((CRmax)/(KD+C))+RI, where RI is the bulk refractive index contribution.

[4] = biological target: T2, TWEAK; assay: Surface Plasmon Resonance assay, TWEAK sensor surface; format: binding; settings: SPR, 0 to 50 μM
Procedure: as §1

[5] = test system: Fn14 signaling; assay: NF-κB luciferase reporter assay with sTWEAK variants, HEK293 NF-κB luciferase cells; format: cell-based, human; settings: 5 hr
Procedure: (§2) NF-κB luciferase reporter Assay. The capacity of sTWEAK or sTWEAK variants to activate Fn14 signaling was evaluated using engineered reporter cell lines that express luciferase upon NF-κB activation. Two reporter cell lines were utilized for these experiments. HEK293 NF-κB luciferase (courtesy of Dr. Jeff Winkles) were generated by transfecting HEK293 cells with a reporter plasmid containing 5 copies of a consensus NF-κB binding site upstream of a minimal CMV promoter driving expression of firefly luciferase. The second cell line, designated HEK293 NF-κB luciferase Fn14 FL, was generated by stably transfecting the HEK293 NF-κB luciferase cell line with full length Fn14. To assay the binding of sTWEAK or sTWEAK variants to Fn14, reporter cells were seeded in tissue culture treated white 96-well plates at 1×10^4 cells/well in 80 μL Opti-MEM media (Invitrogen) and incubated for 48 hr at 37° C. After 48 hr incubation, 20 μL of 5× purified recombinant TWEAK (Peprotech Inc.; 150 ng/mL) in 1 mg/mL BSA in PBS was added to each well and incubated for 5 hr at 37° C. as positive control. Similarly, equivalent amounts of sTWEAK or sTWEAK variant prepared via IVTTas determined using ELISA assay described above was added in 20 μl. […] At the end of 5 hr incubation, the luminescent signal was determined using Bright-Glo assay kit (Promega, Madison, Wis.) according to the manufacturer's instructions.

[6] = test system: Fn14 signaling; assay: NF-κB luciferase reporter assay with sTWEAK variants, HEK293 NF-κB luciferase cells overexpressing full length Fn14; format: cell-based, human; settings: HEK293 NF-κB luciferase cells stably overexpressing full length Fn14, 5 hr
Procedure: as §2

Row | Molecule | effect on TWEAK induced Fn14-NF-κB Luc signal [2] | luciferase expression less than cells stimulated with sTWEAK [5] [%] | induction of luciferase expression less relative to cells stimulated with sTWEAK [6] [%] | further results
1 | Cc1ccc(S(=O)(=O)/C=C/C#N)cc1 [BAY11-7082] | dose-dependent manner |  |  | drug inhibition of TNFα activation, Fn14 versus control cell lines ([1]; drug dose-response format, 40 ng/ml TNFα): no significant difference
2 | CC(C(=O)O)c1ccc(N2Cc3ccccc3C2=O)cc1 (stereo not shown) [Indoprofen] | drug sensitivity in a dose-dependent manner |  |  | effect in NF-KB Luc cells induced with TNFα ([1]; 10 μM, TNFα 40 ng/mL for 8 hours): no significant effect
3 | C[C@@H]1C[C@@H]([C@H](O)CC2CC(=O)NC(=O)C2)C(=O)[C@@H](C)C1 [cycloheximide, reference compound] |  |  |  | binding to Fn14 [3]: did not show significant binding; binding to TWEAK [4]: did not show significant binding
4 | B1 |  | 87 | 98 | 
5 | B2 |  | 100 | 98 | 
